Literature values as cited in US20050107349A1, “Method for the treatment or prevention of respiratory disorders with a cyclooxygenase-2 inhibitor in combination with a muscarinic receptor antagonist and compositions therewith” (Pharmacia Corporation, priority 2003, published 2005).

Columns and labels:
[1] = tested on: subjects suffering from asthma

For `C[N+]1(C)[C@@H]2C[C@@H](OC(=O)C(O)(c3cccs3)c3cccs3)C[C@H]1[C@@H]1O[C@@H]12` [tiotropium, (1α, 2β, 4β, 5α, 7β)-7-[(hydroxy-2-thienylacetyl)oxy]-9,9-dimethyl-3-oxa-9-azoniatricyclo [3.3.1.0^2,4]nonane bromide monohydrate], the “dose-dependent and prolonged bronchodilator effect (duration)” value (patients with COPD) is listed as at most 48 h and the bronchodilation [1] is listed as “prolonged bronchodilation”.
